Several values for one entry are separate records, joined by “and”; a condition that tells them apart may be missing. Equal values may be shown once.
Columns and labels:
Assay type in all cases: in vivo, BALB/c mice
IFN-γ = IFN-γ in BALF of M. pneumoniae-infected mice (ELISA); conditions: for IFN-γ in BALF (AV): group AV; for IFN-γ in BALF: individual mice
Description: (§1) Adult BALB/c mice (20–22 g) were divided into a control group, a positive group, and compound 16C groups at low (20 mg/kg), medium (40 mg/kg), and high-dose (80 mg/kg) levels and oral and intramuscular tiamulin treatment groups (40 mg/kg). We formulated the above dose range based on the dose at which tiamulin was approved for injection (10–20 mg/kg) and the dose previously reported (45 mg/kg) ([EMA, 1999]; [Xiao et al., 2016]). In summary, we selected similar doses for compound 16C in vivo study. 40 mg/kg was used as an intermediate value, one-half of it as a low dose, and two times of it as a high dose. To prepare the challenge solution, logarithmic phase culture suspensions were centrifuged at 1700 g for 10 min, and the pellets were suspended in sterile PBS to obtain 1 × 10^9 CFU/mL. Before the challenge, mice were anesthetized with tribromoethanol (250 mg/kg, IP). Mice in the control groups were intratracheally inoculated with sterile PBS, whereas mice in the other groups were intratracheally challenged with 50 μL (1 × 10^9 CFU/mL) M. pneumoniae suspension once a day for 3 days. Compound 16C and tiamulin (tiamulin-IM group) dissolved using the method mentioned in pharmacokinetic studies, and the tiamulin fumarate soluble powder was dissolved in ddH2O for oral administration. After the final challenge, antibiotics were administered at low, medium, and high-dose levels (see above) at 10 a.m. and 10 p.m. daily for 4 consecutive days. Normal saline containing 5% DMSO and 5% Tween-80 was administered as control and positive groups by thigh intramuscular injection. To compare the efficacy of compound 16C and tiamulin under the same route of administration, we used the original tiamulin for intramuscular administration in the same formulation. On the other hand, tiamulin fumarate soluble powder, approved for oral administration to treat animal mycoplasma diseases in China, was administered to mice by gavage. Based on a clinical study of lefamulin in community-acquired bacterial pneumonia (CABP), subjects were administered twice a day and the 96 ± 24 h of starting treatment was an essential point for early clinical response (ECR) ([Paukner et al., 2022]). We therefore stopped treatment at 96 h and sampled at 192 h to explore whether the disease worsened after cessation of treatment. Bronchoalveolar lavage fluid (BALF) and lungs were collected at 0, 96, 192 h (Samples of 0 h were collected before starting treatment, and mice were fed ad libitum without drug treatment during 96–192 h) after the first dose, BALF for cytokine and cytological analysis and lung for histopathological evaluation.
(§2) Bronchoalveolar lavage was performed according to a standardized method ([Van Hoecke et al., 2017]). BALF was obtained following infusion of 0.5 mL PBS via tracheal cannulation into the lung twice (total 1 mL), and 200 µL was used for mycoplasma counts. The remaining BALF was centrifuged at 300 g for 10 min to separate the debris. The supernatants were stored at −80°C, and the debris was resuspended in the same volume of PBS containing red blood cell lysis buffer. A hemocytometer was used to count total cell numbers in BALF, and cell smears (Diff-Quik staining) were prepared to calculate the percentages of neutrophils, macrophages, and lymphocytes. IFN-γ, TNF-α, and CXCL1 levels in BALF samples were assessed using commercial ELISA kits using guidelines recommended by the manufacturer (Elabscience, Wuhan, China). Parallel data for each experimental group at each time point were obtained from six different mice.

TNF-α = TNF-α in BALF of M. pneumoniae-infected mice (ELISA); conditions: for TNF-α in BALF (AV): group AV; for TNF-α in BALF: individual mice
Description: as §1, §2

[1] = tested on: inflammatory cells in BALF (neutrophils, macrophages, lymphocytes); assay: Inflammatory cell analysis in BALF of M. pneumoniae-infected mice
Description: as §1, §2

[2] = compound 16C 20 mg/kg IM, 192 h
[3] = compound 16C 40 mg/kg IM, 192 h
[4] = compound 16C 80 mg/kg IM, 192 h

## C=CC1(C)CC(OC(=O)CSc2ccc(NC(=O)Cc3ccc([N+](=O)[O-])cc3)cc2)C2(C)C(C)CCC3(CCC(=O)C32)C(C)C1O (stereo not drawn) [compound 16C, 22–((4-((4-nitrophenyl)acetamido)phenyl)thio)deoxypleuromutilin]
IFN-γ; compound 16C 20 mg/kg IM, 96 h
  IFN-γ in BALF (AV): 61.9115 pg/mL
  IFN-γ in BALF: 66.1116 pg/mL and 70.7764 pg/mL and 60.3497 pg/mL and 48.4263 pg/mL and 63.8937 pg/mL
IFN-γ; [2]
  IFN-γ in BALF (AV): 53.7268 pg/mL
  IFN-γ in BALF: 69.6648 pg/mL and 70.9988 pg/mL and 47.7654 pg/mL and 32.8171 pg/mL and 65.2242 pg/mL and 35.8907 pg/mL
IFN-γ; compound 16C 40 mg/kg IM, 96 h
  IFN-γ in BALF (AV): 31.4597 pg/mL
  IFN-γ in BALF: 36.9995 pg/mL and 36.109 pg/mL and 18.2065 pg/mL and 31.1186 pg/mL and 39.6709 pg/mL and 26.6536 pg/mL
IFN-γ; [3]
  IFN-γ in BALF (AV): 43.7114 pg/mL
  IFN-γ in BALF: 35.5746 pg/mL and 45.5493 pg/mL and 40.3832 pg/mL and 54.2951 pg/mL and 42.5204 pg/mL and 43.9456 pg/mL
IFN-γ; compound 16C 80 mg/kg IM, 96 h
  IFN-γ in BALF (AV): 33.085 pg/mL
  IFN-γ in BALF: 42.8939 pg/mL and 46.612 pg/mL and 43.7193 pg/mL and 17.0898 pg/mL and 29.6102 pg/mL and 18.5846 pg/mL
IFN-γ; [4]
  IFN-γ in BALF (AV): 30.1626 pg/mL
  IFN-γ in BALF: 41.5193 pg/mL and 31.3845 pg/mL and 29.0646 pg/mL and 27.0198 pg/mL and 28.7918 pg/mL and 26.4748 pg/mL and 26.8835 pg/mL
TNF-α; compound 16C 20 mg/kg IM, 96 h
  TNF-α in BALF (AV): 60.6586 pg/mL
  TNF-α in BALF: 156.929 pg/mL and 49.4117 pg/mL and 56.9942 pg/mL and 23.2695 pg/mL and 42.5167 pg/mL and 34.8302 pg/mL
TNF-α; [2]
  TNF-α in BALF (AV): 1.835 pg/mL
  TNF-α in BALF: 1.8363 pg/mL and 1.566 pg/mL and 2.372 pg/mL and 2.105 pg/mL and 1.293 pg/mL
TNF-α; compound 16C 40 mg/kg IM, 96 h
  TNF-α in BALF (AV): 10.1817 pg/mL
  TNF-α in BALF: 13.0051 pg/mL and 8.3889 pg/mL and 8.57 pg/mL and 9.454 pg/mL and 9.28 pg/mL and 12.3919 pg/mL
TNF-α; [3]
  TNF-α in BALF (AV): 8.528 pg/mL
  TNF-α in BALF: 8.021 pg/mL and 8.206 pg/mL and 7.835 pg/mL and 9.798 pg/mL and 9.105 pg/mL
TNF-α; compound 16C 80 mg/kg IM, 96 h
  TNF-α in BALF (AV): 10.9013 pg/mL
  TNF-α in BALF: 5.596 pg/mL and 10.365 pg/mL and 13.376 pg/mL and 12.1685 pg/mL and 14.3215 pg/mL and 9.581 pg/mL
TNF-α; [4]
  TNF-α in BALF (AV): 10.3825 pg/mL
  TNF-α in BALF: 8.923 pg/mL and 7.924 pg/mL and 10.8189 pg/mL and 12.996 pg/mL and 10.1697 pg/mL and 11.4637 pg/mL
[1]; 20mg/kg, time 0
  cell counts, total (AV): 48.3833 n*10^5
  cell counts, 中 (neutrophils) (AV): 42.2036 n*10^5
  cell counts, 巨 (macrophages) (AV): 5.64 n*10^5
  cell counts, 淋 (lymphocytes) (AV): 0.5399 n*10^5
[1]; 20mg/kg, time 96
  cell counts, total (AV): 8.192 n*10^5
  cell counts, 中 (neutrophils) (AV): 1.83 n*10^5
  cell counts, 巨 (macrophages) (AV): 3.157 n*10^5
  cell counts, 淋 (lymphocytes) (AV): 3.205 n*10^5
[1]; 20mg/kg, time 192
  cell counts, total (AV): 2.917 n*10^5
  cell counts, 中 (neutrophils) (AV): 1.486 n*10^5
  cell counts, 巨 (macrophages) (AV): 0.8746 n*10^5
  cell counts, 淋 (lymphocytes) (AV): 0.5558 n*10^5
[1]; 40mg/kg, time 0
  cell counts, total (AV): 47.0528 n*10^5
  cell counts, 中 (neutrophils) (AV): 40.6758 n*10^5
  cell counts, 巨 (macrophages) (AV): 4.508 n*10^5

Reference: paper PMC11695783 (Frontiers in Pharmacology, 2024)
